# The source made the active and inactive calls.
# Legend:
# [1] = molecular target: Paired box protein Pax-8 (Homo sapiens, UniProt Q06710); experiment: inhibitors of PAX8-driven TPO luciferase reporter, dose response, RMG-I cells, cherry-pick (AID 687027); assay type: functional, cell-based;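 further: luciferase reporter driven by Pax8 target thyroperoxidase promoter measured by SteadyGlo luminescence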
# [2] = A2780 ovarian cancer cell cytotoxicity, dose response, cytotoxicity control, plate reader, dry powder samples (AID 743046); assay type: functional, cell-based
# [3] = NIH:OVCAR-3 ovarian cancer cell cytotoxicity, dose response, PAX8 inhibitor project, plate reader, dry powder samples (AID 743044); assay type: functional, cell-based
# [4] = IGROV1 ovarian cancer cell cytotoxicity, dose response, PAX8 inhibitor project, plate reader, dry powder samples (AID 743043); assay type: functional, cell-based; conditions: IGROV-1
# [5] = cytotoxicity in OVCAR8 ovarian cancer cells, dose response, PAX8 project, cell-based, plate reader, dry powder samples (AID 743197); assay type: functional; conditions: OVCAR-8
# [6] = system: HEK293; experiment: HEK293T cell cytotoxicity, dose response, cytotoxicity control, ATP luminescence, cherry-pick samples (AID 687005); assay type: functional, cell-based; conditions: Homo sapiens;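 further: cells exposed to compound for 48 hours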
# [7] = HEK293 Cytotoxicity Assay Measured in Cell-Based System Using Plate Reader - 7071-01_Inhibitor_Dose_CherryPick_Activity_Set2.; assay type: functional
# [8] = HEK293 cell cytotoxicity, dose response, cytotoxicity control, cherry-picks, set 5 (AID 1053117); assay type: functional, cell-based
# [9] = inhibitors of fibronectin matrix deposition, dose response, AH1F cells, Alexa488-FN fluorescence, cherry-picks (AID 1035475); assay type: functional, cell-based
# [10] = system: BJ; experiment: cytotoxicity toward BJ-TERT fibroblasts, dose response, cell-based, RAS-independent, luminescence (AID 1933); assay type: functional; conditions: Homo sapiens
# [11] = system: BJ; experiment: cells; assay type: functional, cell-based; conditions: Homo sapiens
# [12] = system: BJ; experiment: cytotoxicity toward BJ-TERT-LT-ST fibroblasts, dose response, cell-based, RAS-independent, luminescence (AID 1935); assay type: functional; conditions: Homo sapiens;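 further: BJ fibroblasts immortalized with TERT plus LT and ST oncogenes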
# [13] = cytotoxicity toward DRD oncogenic fibroblasts, dose response, cell-based, non-viral oncogenic, luminescence (AID 1934); assay type: functional; conditions: Homo sapiens
# [14] = HEK293 cell cytotoxicity, dose response, cytotoxicity control, dry powder samples (AID 720567); assay type: functional, cell-based
# [15] = HEK293T cell cytotoxicity, dose response, cytotoxicity control, CellTiter-Glo luminescence, dry powder, set 6 (AID 651949); assay type: functional, cell-based; conditions: HEK293
# [16] = molecular target: T1, Potassium channel subfamily K member 9 (Homo sapiens, UniProt Q9NPC2); experiment: KCNK9 (TASK3) current inhibition by patch clamp, SAR follow-up, selectivity assay for TASK1 (KCNK3) inhibitor project, cell-based, automated electrophysiology (AID 652210); assay type: functional
# [17] = molecular target: T1, Potassium channel subfamily K member 9; experiment: TASK3 (KCNK9) channel inhibitors, thallium flux, SAR follow-up, selectivity assay for TASK1 inhibitor project, cell-based, FluxOR thallium flux, concentration-response (AID 652211); assay type: functional;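 further: potency is for inhibitors of the channel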
# [18] = molecular target: Potassium channel subfamily K member 3 (Rattus norvegicus, UniProt O54912); experiment: SAR analysis for the identification of selective inhibitors of the two-pore domain potassium channel TASK1(KCNK3):Automated Electrophysiology.; assay type: functional
# [19] = molecular target: Potassium channel subfamily K member 3 (Homo sapiens, UniProt O14649); experiment: TASK1 (KCNK3) potassium channel inhibitors, SAR follow-up, CHO cells, FluxOR thallium flux (AID 652212); assay type: functional
# [20] = Mtb BioA inhibitors by displacement, dose response, biochemical, coupled fluorescence displacement, 20-point, dry powder (AID 743357); assay type: functional
# [21] = TRPM1 promoter luciferase reporter signal decrease, dose response, MITF inhibitor project, cell-based, SK-MEL-5, dry powder, set 9 (AID 651588); assay type: functional
# [22] = A375 melanoma cell viability loss, dose response, counter-screen for MITF inhibitor project, CellTiter-Glo luminescence, dry powder, set 4 (AID 624364); assay type: functional, cell-based; conditions: A-375;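 further: A375 melanoma cells are MITF independent so this is a counter screen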
# [23] = A375 melanoma cell cytotoxicity, dose response, counter-screen for MITF inhibitor project, CellTiter-Glo luminescence, dry powder, set 7 (AID 624490); assay type: functional, cell-based; conditions: A-375
# [24] = MITF Orthogonal Assay: MALME3 CTG Assay Measured in Cell-Based System Using Plate Reader - 2084-04_Inhibitor_Dose_DryPowder_Activity_Set6.; assay type: functional; conditions: MALME-3
# [25] = SK-MEL-5 parental cell viability reduction, dose response, orthogonal assay for MITF inhibitor project, CellTiter-Glo luminescence, dry powder, set 8 (AID 651586); assay type: functional, cell-based
# [26] = MALME3 melanoma cell viability reduction, dose response, orthogonal assay for MITF inhibitor project, CellTiter-Glo luminescence, dry powder, set 5 (AID 651584); assay type: functional, cell-based; conditions: MALME-3
# [27] = SK-MEL-5 parental line viability, dose response, MITF inhibitor project, cell-based, CellTiter-Glo, dry powder, set 6 (AID 624429); assay type: functional
# [28] = MITF Orthogonal Assay: SK-MEL-5 CTG Assay Measured in Cell-Based System Using Plate Reader - 2084-02_Inhibitor_Dose_DryPowder_Activity_Set5.; assay type: functional
# [29] = A375 melanoma cell cytotoxicity, dose response, counter-screen for MITF inhibitor project, CellTiter-Glo luminescence, dry powder, set 6 (AID 624488); assay type: functional, cell-based; conditions: A-375
# [30] = A375 melanoma cell viability loss, dose response, counter-screen for MITF modulator project, CellTiter-Glo luminescence, dry powder, set 9 (AID 651591); assay type: functional, cell-based; conditions: A-375
# [31] = MITF Measured in Cell-Based System Using Plate Reader - 2084-01_Inhibitor_Dose_DryPowder_Activity_Set6.; assay type: functional
# [32] = A375 melanoma cell cytotoxicity, dose response, counter-screen for MITF inhibitor project, CellTiter-Glo luminescence, dry powder, set 2 (AID 624489); assay type: functional, cell-based; conditions: A-375;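 further: actives are compounds lowering A375 viability meaning general cytotoxicity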
# [33] = MITF Measured in Cell-Based System Using Plate Reader - 2084-01_Inhibitor_Dose_DryPowder_Activity_Set7.; assay type: functional
# [34] = cytotoxicity in primary human melanocytes, dose response, cytotoxicity control, cell-based, plate reader, dry powder (AID 651920); assay type: functional
# T1 sequence (Q9NPC2 whole entry): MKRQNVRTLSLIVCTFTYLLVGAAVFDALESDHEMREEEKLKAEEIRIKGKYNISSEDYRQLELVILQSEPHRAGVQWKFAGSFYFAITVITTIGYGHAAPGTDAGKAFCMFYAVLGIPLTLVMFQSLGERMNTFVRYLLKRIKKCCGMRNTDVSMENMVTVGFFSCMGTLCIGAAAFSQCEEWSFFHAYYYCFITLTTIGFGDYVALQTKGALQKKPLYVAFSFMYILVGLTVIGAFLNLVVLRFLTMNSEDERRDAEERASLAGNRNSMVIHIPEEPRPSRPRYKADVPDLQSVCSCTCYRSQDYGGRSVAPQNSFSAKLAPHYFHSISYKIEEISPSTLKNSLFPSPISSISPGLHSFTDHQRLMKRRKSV
# Chain of Potassium channel subfamily K member 3 (Rattus norvegicus, UniProt O54912) (O54912 whole entry, the tested form may be a part): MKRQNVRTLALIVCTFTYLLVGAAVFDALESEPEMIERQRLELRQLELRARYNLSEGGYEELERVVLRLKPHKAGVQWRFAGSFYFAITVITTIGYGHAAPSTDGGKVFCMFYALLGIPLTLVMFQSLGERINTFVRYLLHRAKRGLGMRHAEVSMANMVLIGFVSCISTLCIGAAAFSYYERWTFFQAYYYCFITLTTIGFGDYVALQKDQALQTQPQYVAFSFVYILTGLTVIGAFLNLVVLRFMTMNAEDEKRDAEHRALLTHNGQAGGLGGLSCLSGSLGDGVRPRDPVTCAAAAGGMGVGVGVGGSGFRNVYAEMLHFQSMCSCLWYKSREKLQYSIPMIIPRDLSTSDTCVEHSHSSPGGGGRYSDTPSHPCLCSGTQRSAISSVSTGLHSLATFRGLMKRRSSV
# Chain of Potassium channel subfamily K member 3 (Homo sapiens, UniProt O14649) (O14649 whole entry): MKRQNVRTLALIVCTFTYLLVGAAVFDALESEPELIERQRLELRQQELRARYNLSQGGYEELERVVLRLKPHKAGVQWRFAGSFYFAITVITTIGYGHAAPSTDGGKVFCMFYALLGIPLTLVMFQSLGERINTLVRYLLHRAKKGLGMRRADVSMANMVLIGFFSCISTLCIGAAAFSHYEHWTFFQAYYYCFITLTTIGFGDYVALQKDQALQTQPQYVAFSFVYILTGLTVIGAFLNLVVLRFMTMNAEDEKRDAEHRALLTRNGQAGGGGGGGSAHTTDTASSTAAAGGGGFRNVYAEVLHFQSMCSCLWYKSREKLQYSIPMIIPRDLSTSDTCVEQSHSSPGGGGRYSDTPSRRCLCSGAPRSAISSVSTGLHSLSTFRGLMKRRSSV
# Chain of Paired box protein Pax-8 (Q06710 whole entry): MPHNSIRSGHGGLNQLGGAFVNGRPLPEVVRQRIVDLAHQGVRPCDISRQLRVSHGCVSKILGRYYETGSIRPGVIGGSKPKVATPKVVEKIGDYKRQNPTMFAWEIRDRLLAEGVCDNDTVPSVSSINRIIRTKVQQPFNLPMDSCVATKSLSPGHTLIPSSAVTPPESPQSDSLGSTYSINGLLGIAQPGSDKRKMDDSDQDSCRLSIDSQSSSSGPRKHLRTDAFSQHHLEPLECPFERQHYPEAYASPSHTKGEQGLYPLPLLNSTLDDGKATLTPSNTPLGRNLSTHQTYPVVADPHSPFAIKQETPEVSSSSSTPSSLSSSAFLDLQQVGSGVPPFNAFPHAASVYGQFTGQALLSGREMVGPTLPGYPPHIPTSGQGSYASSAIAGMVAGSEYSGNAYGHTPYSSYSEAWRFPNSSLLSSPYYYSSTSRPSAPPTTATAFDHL
structure (smiles),measurement,setting,value
O=C1CN(S(=O)(=O)Cc2ccccc2)C[C@@H]2[C@@H](c3ccc(C#CCC4CCCC4)cc3)[C@@H](CO)N12,AC50,[1],4.58 µM (active)
same,AC50,[2],11.3 µM (active)
same,AC50,[3],4.22 µM (active)
same,AC50,[4],18.8 µM (active)
same,AC50,[5],28.1 µM (active)
COc1ccccc1CNC(=O)C[C@@H]1C[C@H]2c3cc(NC(=O)Nc4ccccc4F)ccc3O[C@H]2[C@@H](CO)O1,AC50,[6],26.6 µM (active)
same,AC50,[7],26.6 µM (active)
N#Cc1ccc(-c2ccc3c(c2)[C@@H]2[C@@H](CCN2S(=O)(=O)c2cccc(F)c2)[C@H](CO)N3)cc1,AC50,[8],> 52 µM (inactive)
same,AC50,[9],1.18 µM (active)
C/C(=N\NC(=O)c1c([N+](=O)[O-])c(C)nn1C)c1ccc(NC(=O)C2CCCC2)cc1,EC50,[10],1.02 µM (active)
same,EC50,[11],0.476 µM (active)
same,EC50,[12],0.918 µM (inconclusive)
same,EC50,[13],0.605 µM (active)
same,AC50,[14],12.8 µM (active)
COc1ccc(CSc2nnc(-c3ccccc3)o2)cc1,AC50,[15],> 52 µM (inactive)
CCOc1ccccc1NC(=O)c1cccc(NC(=O)c2ccccc2C(F)(F)F)c1,IC50,[16],0.52 µM (active)
same,IC50,[17],0.32 µM (active)
same,IC50,[18],0.006 µM (active)
same,IC50,[19],0.03 µM (active)
COc1cc2c(cc1C(=O)N1CCN(c3ccc(C(C)=O)cc3)CC1)OCO2,AC50,[20],13.7 µM (active)
NC1=CC(=O)c2ccccc2C1=O,AC50,[21],12.1 µM (active)
same,AC50,[22],> 70 µM (inactive)
same,AC50,[23],45.7 µM (active)
same,AC50,[24],9.48 µM (active)
same,AC50,[25],8.76 µM (active)
same,AC50,[26],9.48 µM (active)
same,AC50,[27],6.75 µM (active)
same,AC50,[28],5.13 µM (active)
same,AC50,[29],56.9 µM (active)
same,AC50,[30],> 70 µM (inactive)
same,AC50,[31],4.14 µM (active)
same,AC50,[32],65.7 µM (active)
same,AC50,[33],1.28 µM (active)
same,AC50,[34],25.1 µM (active)
